Patent publication US20250090699A1, “FAP TARGETING CYCLIC PEPTIDES AND CONJUGATES THEREOF” (Novartis AG, priority 2023, published 2025)
Counter-ions that a name gives are not always drawn. Starred links: 1 amine or outer side, 2 acyl side, 3 side chain; linkers in the order of their positions; H or OH if unused. Non-standard residues stand in square brackets, D forms with d. Residues, ends and D or L forms follow the SMILES beside them. F(4amPEG2NHDOTA-Lu) = lutetium complex of (S)-2,2',2''-(10-(1-(4-(2-amino-2-carboxyethyl)phenyl)-3,12-dioxo-5,8-dioxa-2,11-diazatridecan-13-yl)-1,4,7,10-tetraazacyclododecane-1,4,7-triyl)triacetic acid (Phe with 4-aminomethyl-PEG2-DOTA-Lu), O=C([O-])CN1CCN(CC(=O)[O-])CCN(CC(=O)NCCOCCOCC(=O)NCc2ccc(C[C@H](N[*:1])C(=O)[*:2])cc2)CCN(CC(=O)[O-])CC1.[Lu+3]; NMeCha = CN[C@@H](CC1CCCCC1)C(=O)O; mTyr = N[C@@H](Cc1cccc(O)c1)C(=O)O; NMeF = CN[C@@H](Cc1ccccc1)C(=O)O; αMeD = C[C@](N)(CC(=O)O)C(=O)O; Ahp(2) = CCCCC[C@H](N)C(=O)O

What was measured:
mouse FAP [1] = target: T1, mouse FAP (Mus musculus, UniProt P97321); experiment: Enzymatic FAP competition assay (Z-Gly-Pro-AMC fluorescence), mouse FAP; assay type: biochemical; conditions: read-out: m. FAP, Enz., IC50
T1 construct: biotinylated His, Avi tag, mouse FAP (26-761, FAP-M82Q5); His; Avi tag (biotinylated); purchased AcroBiosystems FAP-M82Q5
T1 sequence (P97321 26-761): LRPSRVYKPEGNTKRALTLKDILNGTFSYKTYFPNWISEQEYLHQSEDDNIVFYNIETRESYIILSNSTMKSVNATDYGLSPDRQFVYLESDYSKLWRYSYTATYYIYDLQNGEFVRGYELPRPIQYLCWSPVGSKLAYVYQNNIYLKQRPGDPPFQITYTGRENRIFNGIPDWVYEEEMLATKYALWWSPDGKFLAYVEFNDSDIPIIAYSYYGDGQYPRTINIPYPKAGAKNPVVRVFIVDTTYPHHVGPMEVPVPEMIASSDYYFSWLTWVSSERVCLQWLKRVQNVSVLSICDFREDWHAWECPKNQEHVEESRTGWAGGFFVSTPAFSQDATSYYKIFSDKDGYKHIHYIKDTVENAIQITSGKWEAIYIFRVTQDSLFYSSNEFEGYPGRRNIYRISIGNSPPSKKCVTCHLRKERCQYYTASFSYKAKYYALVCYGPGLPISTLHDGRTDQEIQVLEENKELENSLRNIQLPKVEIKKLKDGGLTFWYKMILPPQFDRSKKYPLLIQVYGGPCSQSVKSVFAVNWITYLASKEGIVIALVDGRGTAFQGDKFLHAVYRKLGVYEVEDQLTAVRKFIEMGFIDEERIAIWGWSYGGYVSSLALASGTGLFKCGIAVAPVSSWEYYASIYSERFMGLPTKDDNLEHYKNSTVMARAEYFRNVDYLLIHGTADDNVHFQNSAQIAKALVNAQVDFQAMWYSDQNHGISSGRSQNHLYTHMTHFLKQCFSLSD
Procedure: (§1) Peptide potencies (IC50) to inhibit the FAP enzymatic activity were determined using a fluorescence-based assay towards the biotinylated His, Avi tag, human FAP (26-760, FAP-H82Q6) and the biotinylated His, Avi tag, mouse FAP (26-761, FAP-M82Q5). Standard assay conditions consisted of 20 μL total volume in white 384-well plates (Greiner, Ref. 784075), in 50 mM phosphate buffer pH 7.5 containing 150 mM NaCl, 0.05% Tween20 and 1% final DMSO. Tested peptides at 14 different concentrations up to 1 μM were added to 0.01 nM human or mouse FAP. The peptides were incubated for 24 hours together with the protein before adding the substrate 50 μM Z-Gly-Pro-AMC (I-1145 from Bachem). Samples were then incubated at 22-24° C. for 4 h before reading the fluorescence at excitation wavelength of 380 nm and emission wavelength of 460 nm using the Tecan Infinite® M1000 PRO. The high control (100% activity) was not containing any peptide, and an internal potent peptide was added at 10 μM concentration for the low control (100% inhibition). IC50 values were calculated by curve fitting using an in-house developed software (Novartis Helios software application) using the method described by Fomenko et al., 2006 (regression algorithms for nonlinear dose-response curve fitting). Following normalization of activity values for the wells to % inhibition (% inhibition=[(high control-sample)/(high control-low control)]x 100). IC50 fitting was carried out from the duplicated points.

mouse FAP [2] = target: T1, mouse FAP; experiment: Surface plasmon resonance (SPR) for peptide affinity, mouse FAP; assay type: binding
Procedure: Peptide affinities (KD) were determined by SPR using a Biacore™ 8K device (Cytiva) towards the following proteins: biotinylated His, Avi tag, human FAP (26-760, FAP-H82Q6), biotinylated His, Avi tag, mouse FAP (26-761, FAP-M82Q5), His tag, human DPP4 (34-766, DP4-H82E3), all purchased from AcroBiosystems and His tag, mouse DPP4 (29-760, 954-SE) from R&D Systems. The FAP proteins and their homologous were diluted to a concentration of 2 μg/mL into acetate buffer pH 5.5, then immobilized onto a CM5 sensorchip (Cytiva, BR-1005-30) to reach a response around 2000 R U. The running buffer HBS-EP+pH 7.6 (20× from Teknova CAT. No: H8022) contained 10 mM HEPES pH 7.6, 150 mM NaCl, 3 mM EDTA, 0.05% Tween20 and 2% DMSO. Experiments were carried out at 25° C. using a flow rate of 30 μL/min. Compounds were tested in single cycle kinetic mode at 8 different concentrations. Curve fitting was performed using the Biacore™ 8K evaluation software. The sensorgrams were fitted by applying a 1:1 binding model to calculate kinetic rate constants and equilibrium dissociation constants (KD).
For this assay, the setup had the same conditions (flow rate, running buffer, peptide dilution) as described above for the CM5 method. The oligo CAP reagent obtained in the CAPture Kit (Ref. 28920234) was 1/5 diluted into running buffer and used with a contact time of 300 s at a flow rate of 2 μL/min. The human and mouse FAP constructs described above were used (from AcroBiosystems or produced in house). The FAP proteins were diluted to a concentration of 2 μg/mL into acetate pH 5.5, 0.05% Tween20 and used with a contact time of 600 s at a flow rate of 10 μL/min. The peptides were tested with an association time of 280 s followed by a dissociation time of 3000 s at a flow rate of 30 μL/min. The regeneration was done using the regeneration solution (8 M guanidine-HCl, 1 M NaOH) as obtained with a contact time of 270 s at a flow rate of 10 μL/min. […] The compounds marked with an asterisk were tested against human and mouse DDP4.

human FAP = target: T2, human FAP (Homo sapiens, UniProt Q12884); experiment: Enzymatic FAP competition assay (Z-Gly-Pro-AMC fluorescence), human FAP; assay type: biochemical; conditions: read-out: h. FAP, Enz., IC50
T2 construct: the biotinylated His, Avi tag, human FAP (26-760, FAP-H82Q6); His; Avi tag (biotinylated); purchased AcroBiosystems FAP-H82Q6
T2 sequence (Q12884 26-760): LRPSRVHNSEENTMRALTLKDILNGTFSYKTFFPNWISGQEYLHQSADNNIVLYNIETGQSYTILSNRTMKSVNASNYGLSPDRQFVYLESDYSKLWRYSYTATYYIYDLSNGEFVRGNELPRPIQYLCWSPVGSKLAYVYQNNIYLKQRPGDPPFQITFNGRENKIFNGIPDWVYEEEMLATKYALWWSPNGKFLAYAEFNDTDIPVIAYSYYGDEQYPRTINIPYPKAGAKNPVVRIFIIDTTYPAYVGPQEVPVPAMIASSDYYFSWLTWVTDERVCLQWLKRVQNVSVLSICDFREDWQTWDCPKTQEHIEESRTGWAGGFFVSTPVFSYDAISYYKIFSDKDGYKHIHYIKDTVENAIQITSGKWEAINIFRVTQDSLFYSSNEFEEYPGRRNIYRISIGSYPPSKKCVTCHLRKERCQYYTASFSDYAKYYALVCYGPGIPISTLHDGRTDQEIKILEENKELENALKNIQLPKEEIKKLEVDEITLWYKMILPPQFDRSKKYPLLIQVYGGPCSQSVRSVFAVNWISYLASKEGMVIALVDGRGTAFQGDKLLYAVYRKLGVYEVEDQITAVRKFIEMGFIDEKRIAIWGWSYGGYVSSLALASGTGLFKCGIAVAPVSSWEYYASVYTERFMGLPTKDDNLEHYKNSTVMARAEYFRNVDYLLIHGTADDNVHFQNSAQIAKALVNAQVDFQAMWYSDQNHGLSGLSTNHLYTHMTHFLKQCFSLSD
Procedure: as §1

Row | Compound | IC50 (mouse FAP [1]) [nM] | Kd (mouse FAP [2]) [nM] | IC50 (human FAP) [nM]
1 | Gly-Gly-NMePhe-F(4amPEG2NHDOTA-Lu)-Ahp-Trp-Gly-Tyr-Asp-D-Pro (cyclo(GG[NMeF][F(4amPEG2NHDOTA-Lu)][Ahp(2)]WGYD[dP]); also: Lu complex) [Example C15] | 0.009 | 0.013 | 0.003
2 | CCCCC[C@@H]1NC(=O)[C@H](Cc2ccc(O)cc2)NC(=O)[C@H](Cc2ccccc2)N(C)C(=O)CNC(=O)CNC(=O)[C@H]2CCCN2C(=O)[C@H](CC(=O)O)NC(=O)[C@H](Cc2cccc(O)c2)NC(=O)CNC(=O)[C@H](Cc2c[nH]c3ccccc23)NC1=O [Example A14, Gly-Gly-NMePhe-Tyr-Ahp-Trp-Gly-F(3OH)-Asp-D-Pro] (cyclo([Ahp(2)]WG[mTyr]D[dP]GG[NMeF]Y)) | 0.37 | 0.239 | 0.092

The remaining compounds from weak to strong by IC50 (mouse FAP [1]), led by results:

Row | IC50 (mouse FAP [1]) [nM] | Kd (mouse FAP [2]) [nM] | IC50 (human FAP) [nM] | Compound
3 | 1000 | > 6000 | 237 | CCCCC[C@@H]1NC(=O)[C@H](Cc2ccc(O)cc2)NC(=O)[C@H](Cc2ccccc2)N(C)C(=O)CNC(=O)CNC(=O)[C@H]2CCCN2C(=O)[C@](C)(CC(=O)O)NC(=O)[C@H](Cc2ccc(O)cc2)NC(=O)CNC(=O)[C@H](Cc2c[nH]c3ccccc23)NC1=O [Example A72, Gly-Gly-NMePhe-Tyr-Ahp-Trp-Gly-Tyr-aMeD-D-Pro] (cyclo([Ahp(2)]WGY[αMeD][dP]GG[NMeF]Y))
4 | 84 | 135 | 24 | CCCCC[C@@H]1NC(=O)[C@H](Cc2ccc(O)cc2)NC(=O)[C@H](Cc2ccccc2)N(C)C(=O)CNC(=O)CNC(=O)[C@H]2CCCN2C(=O)[C@H](CCCCNC(C)=O)NC(=O)[C@H](Cc2ccc(O)cc2)NC(=O)CNC(=O)[C@H](Cc2c[nH]c3ccccc23)NC1=O [Example A55, Gly-Gly-NMePhe-Tyr-Ahp-Trp-Gly-Tyr-K(Ac)-D-Pro] (cyclo([Ahp(2)]WGYK(Ac)[dP]GG[NMeF]Y))
5 | 0.189 | 0.188 | 0.069 | CCCCC[C@@H]1NC(=O)[C@H](Cc2ccc(O)cc2)NC(=O)[C@H](CC2CCCCC2)N(C)C(=O)CNC(=O)[C@H](CCCCN)NC(=O)[C@H]2CCCN2C(=O)[C@H](CC(=O)O)NC(=O)[C@H](Cc2ccc(O)cc2)NC(=O)CNC(=O)[C@H](Cc2c[nH]c3ccccc23)NC1=O [Example A43, Lys-Gly-NMecHexA-Tyr-Ahp-Trp-Gly-Tyr-Asp-D-Pro, TFA salt] (cyclo([Ahp(2)]WGYD[dP]KG[NMeCha]Y))
